The assay deals with human TLR7 (Homo sapiens (Human), UniProt Q9NYK1). The assay can be described thus: Test for evaluating the inhibition of the activation of human TLR7 (SEAP reporter, TLR7/NF-κB/SEAPorter HEK293 cell). Type of assay: cell-based. The following applies: R-848 200 nmol/L; for inhibitory effect against TLR7 in the test for evaluating inhibition of the activation of TLR7: SEAP activity, result in words; for IC50: SEAP reporter. The protocol:
As human TLR7 expressing cell line, HEK293 cell line was bought from IMGENEX Corporation (TLR7/NF-ηB/SEAPorter™ HEK293 cell), which is human embryonic kidney cell line and stably expresses full-length human TLR7 gene and secreted alkaline phosphatase (SEAP) reporter gene under the transcriptional control of an NE-ηB response element. The TLR7/NF-ηB/SEAPorter™ HEK293 cell was cultivated with DMEM containing 10% fetal bovine serum (FBS) and 10 μg/mL blasticidin S at 37° C. in the presence of 5% CO2. The TLR7/NF-ηB/SEAPorter™ HEK293 cell was seeded into 96-well microtiter plate at 5×10^4 cell/90 μL/well, and the place was cultivated at 37° C. in a CO2 incubator overnight.
Each compound prepared in the Examples was evaluated by Test 1.

Chain of human TLR7 (Q9NYK1 27-1049): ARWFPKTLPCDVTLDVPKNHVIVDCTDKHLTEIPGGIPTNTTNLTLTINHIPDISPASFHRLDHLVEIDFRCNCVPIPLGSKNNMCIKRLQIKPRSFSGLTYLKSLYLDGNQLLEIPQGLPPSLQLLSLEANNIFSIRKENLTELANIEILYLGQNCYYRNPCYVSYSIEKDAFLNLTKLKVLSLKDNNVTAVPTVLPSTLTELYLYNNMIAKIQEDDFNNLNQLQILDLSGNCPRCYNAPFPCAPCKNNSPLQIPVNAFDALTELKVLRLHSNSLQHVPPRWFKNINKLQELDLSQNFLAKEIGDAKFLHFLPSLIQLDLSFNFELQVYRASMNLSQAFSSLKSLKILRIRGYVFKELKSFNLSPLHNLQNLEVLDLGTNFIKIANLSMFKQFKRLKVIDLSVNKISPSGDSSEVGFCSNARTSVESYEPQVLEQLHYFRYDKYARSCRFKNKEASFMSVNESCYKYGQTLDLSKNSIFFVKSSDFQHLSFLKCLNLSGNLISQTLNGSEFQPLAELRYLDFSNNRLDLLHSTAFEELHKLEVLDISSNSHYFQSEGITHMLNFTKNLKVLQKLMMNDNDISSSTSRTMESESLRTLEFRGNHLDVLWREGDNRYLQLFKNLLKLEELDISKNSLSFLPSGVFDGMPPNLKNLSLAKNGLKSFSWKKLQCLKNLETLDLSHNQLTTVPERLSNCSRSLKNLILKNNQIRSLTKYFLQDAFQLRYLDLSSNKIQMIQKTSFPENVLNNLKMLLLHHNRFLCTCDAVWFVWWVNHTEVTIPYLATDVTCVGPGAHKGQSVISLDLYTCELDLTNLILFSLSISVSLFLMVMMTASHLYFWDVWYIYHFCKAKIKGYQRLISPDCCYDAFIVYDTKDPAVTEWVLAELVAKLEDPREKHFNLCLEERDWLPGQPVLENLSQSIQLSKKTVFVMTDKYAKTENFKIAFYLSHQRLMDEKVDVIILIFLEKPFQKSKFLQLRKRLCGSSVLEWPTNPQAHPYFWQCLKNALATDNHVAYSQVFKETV

As to `COc1nc(C)c2nc(-c3cncc(F)c3)n(Cc3ccc(CN4C[C@@H]5C[C@H]4CN5C)cc3)c2n1` [Example 107, 8-(5-fluoropyridin-3-yl)-2-methoxy-6-methyl-9-(4-{[(1S,4S)-5-methyl-2,5-diazabicyclo[2.2.1]hept-2-yl]methyl}benzyl)-9H-purine], the “inhibitory effect against TLR7 in the test for evaluating inhibition of the activation of TLR7” value (“inhibitory effect against TLR7” below) is recorded as “potent inhibitory effect against TLR7” and it took 27 nM to reach half-maximal inhibition (IC50). The like results for `CCOc1nc(C)c2nc(-c3cncc(F)c3)n(Cc3ccc(CN4C[C@@H]5C[C@H]4CN5C)cc3)c2n1` [Example 109, 2-ethoxy-8-(5-fluoropyridin-3-yl)-6-methyl-9-(4-{[(1S,4S)-5-methyl-2,5-diazabicyclo[2.2.1]hept-2-yl]methyl}benzyl)-9H-purine] were, in that order, “potent inhibitory effect against TLR7” and 10 nM. The like results for `CCOc1nc(C)c2nc(-c3cncc(F)c3)n(Cc3ccc(CN4C[C@H]5C[C@@H]4CN5C)cc3)c2n1` [Example 110, 2-ethoxy-8-(5-fluoropyridin-3-yl)-6-methyl-9-(4-{[(1R,4R)-5-methyl-2,5-diazabicyclo[2.2.1]hept-2-yl]methyl}benzyl)-9H-purine] were, in that order, “potent inhibitory effect against TLR7” and 5 nM. Turning to `CCCCOc1nc(C)c2nc(-c3cncc(F)c3)n(Cc3ccc(CN4CCOCC4)cc3)c2n1` [Example 112], the IC50 worked out at 100 nM. On the same count and under the same terms, next, `COCCOc1nc(C)c2nc(-c3cncc(F)c3)n(Cc3ccc(CN4CCOCC4)cc3)c2n1` [Example 114]: 300 nM. The same measure, in the same setting: next, `COCCOc1nc(C)c2nc(-c3cncc(F)c3)n(Cc3ccc(CN4CCN(C)CC4)cc3)c2n1` [Example 115]: 100 nM; `CCOc1nc(C)c2nc(-c3cncc(F)c3)n(Cc3ccc(CN4CC(C#N)C4)cc3)c2n1` [Example 116]: 160 nM; `CCNc1nc(N)c2nc(-c3cncc(F)c3)n(Cc3ccc(CN(C)C)cc3)c2n1` [Example 117]: 7000 nM. Still for that read-out and setting: next, `CN(C)Cc1ccc(Cn2c(-c3cncc(F)c3)nc3c(N)nc(Cl)nc32)cc1` [Example 118]: 950 nM. Consider `CCOc1nc(C)c2nc(-c3cncc(F)c3)n(Cc3ccc(CN4C[C@@H]5C[C@H]4CN5)cc3)c2n1` [Example 123, 9-{4-[(1S,4S)-2,5-Diazabicyclo[2.2.1]hept-2-ylmethyl]benzyl}-2-ethoxy-8-(5-fluoropyridin-3-yl)-6-methyl-9H-purine], for which the “inhibitory effect against TLR7” value is “potent inhibitory effect against TLR7” and the IC50 is 33 nM. The molecule `CCOc1nc(N)c2nc(-c3cncc(F)c3)n(Cc3ccc(CN4C[C@@H]5C[C@H]4CN5)cc3)c2n1` [Example 124] returned an IC50 of 220 nM. This counts as sub-micromolar. Regarding `COc1nc(C)c2nc(-c3cncc(F)c3)n(Cc3ccc(CN4C[C@@H]5C[C@H]4CN5)cc3)c2n1` [Example 125], the “inhibitory effect against TLR7” value was “potent inhibitory effect against TLR7” and the IC50 amounted to 85 nM. In turn, `CCOc1nc(N)c2nc(-c3cncc(F)c3)n(Cc3ccc(CN4C[C@@H]5C[C@H]4CN5C(C)=O)cc3)c2n1` [Example 126, 1-[(1S,4S)-5-(4-{[6-Amino-2-ethoxy-8-(5-fluoropyridin-3-yl)-9H-purin-9-yl]methyl}benzyl)-2,5-diazabicyclo[2.2.1]hept-2-yl]ethanone] came in with an IC50 of 150 nM.

For `CCOc1nc(N)c2nc(-c3cncc(F)c3)n(Cc3ccc(C4CCN(C)CC4)cc3)c2n1` [Example 127, 2-Ethoxy-8-(5-fluoropyridin-3-yl)-9-[4-(1-methylpiperidin-4-yl)benzyl]-9H-purine-6-amine], the “inhibitory effect against TLR7” value is on record as “potent inhibitory effect against TLR7” and inhibition was half-maximal at 53 nM (IC50).

As for `CCOc1nc(N)c2nc(-c3cncc(F)c3)n(Cc3ccc(CN4C[C@@H]5C[C@H]4CN5CC)cc3)c2n1` [Example 128], the “inhibitory effect against TLR7” value is on record as “potent inhibitory effect against TLR7” and the IC50 was found to be 19 nM. On to `CCOc1nc(N)c2nc(-c3cncc(F)c3)n(Cc3ccc(CN4C[C@@H]5C[C@H]4CN5C4COC4)cc3)c2n1` [Example 129], for which the “inhibitory effect against TLR7” value was “potent inhibitory effect against TLR7” and it took 71 nM to reach half-maximal inhibition (IC50). As to `CCOc1nc(N)c2nc(-c3cncc(F)c3)n(Cc3ccc(CN4C[C@@H]5C[C@H]4CN5C4CC4)cc3)c2n1` [Example 130], the “inhibitory effect against TLR7” value is reported as “potent inhibitory effect against TLR7” and 43 nM corresponded to half-maximal inhibition (IC50). The like results for `CCOc1nc(C)c2nc(-c3cncc(F)c3)n(Cc3ccc(CN4C[C@@H]5C[C@H]4CN5CC)cc3)c2n1` [Example 131, 2-ethoxy-9-(4-{[(1S,4S)-5-ethyl-2,5-diazabicyclo[2.2.1]hept-2-yl]methyl}benzyl)-8-(5-fluoropyridin-3-yl)-6-methyl-9H-purine] were, in that order, “potent inhibitory effect against TLR7” and 7 nM.

On to `CCN1C[C@@H]2C[C@H]1CN2Cc1ccc(Cn2c(-c3cncc(F)c3)nc3c(C)nc(OC)nc32)cc1` [Example 132, 9-(4-{[(1S,4S)-5-ethyl-2,5-diazabicyclo[2.2.1]hept-2-yl]methyl}benzyl)-8-(5-fluoropyridin-3-yl)-2-methoxy-6-methyl-9H-purine], for which the “inhibitory effect against TLR7” value is given as “potent inhibitory effect against TLR7” and the IC50 is 19 nM. The like results for `CCCN1C[C@@H]2C[C@H]1CN2Cc1ccc(Cn2c(-c3cncc(F)c3)nc3c(C)nc(OC)nc32)cc1` [Example 133, 8-(5-fluoropyridin-3-yl)-2-methoxy-6-methyl-9-(4-{[(1S,4S)-5-propyl-2,5-diazabicyclo[2.2.1]hept-2-yl]methyl}benzyl)-9H-purine] were, in that order, “potent inhibitory effect against TLR7” and 13 nM. With `CCN1C[C@@H]2C[C@H]1CN2Cc1ccc(Cn2c(-c3cncc(F)c3)nc3c(N)nc(OC)nc32)cc1` [Example 134], the IC50 turned out to be 170 nM. As for `CCOc1nc(N)c2nc(-c3cncc(F)c3)n(Cc3ccc(C4CCN(C5COC5)CC4)cc3)c2n1` [Example 135], the “inhibitory effect against TLR7” value is listed as “potent inhibitory effect against TLR7” and inhibition was half-maximal at 85 nM (IC50). As for `CCOc1nc(N)c2nc(-c3cncc(F)c3)n(Cc3ccc4c(c3)CN(C)C4)c2n1` [Example 137], the IC50 stood at 840 nM. In the case of `CCOc1nc(C)c2nc(-c3cncc(F)c3)n(Cc3ccc(C4CCN(C)C4)cc3)c2n1` (centres unmarked) [Example 138], the “inhibitory effect against TLR7” value was “potent inhibitory effect against TLR7” and half-maximal inhibition (IC50) was put at 49 nM. `CCOc1nc(N)c2nc(-c3cncc(F)c3)n(Cc3ccc(COCCN(C)C)cc3)c2n1` [Example 140, 9-(4-{[2-(Dimethylamino)ethoxy]methyl}benzyl)-2-ethoxy-8-(5-fluoropyridin-3-yl)-9H-purine-6-amine] returned an IC50 of 120 nM. The same measure, in the same setting: next, `CCCCOc1nc(C)c2nc(-c3cncc(F)c3)n(Cc3ccccc3)c2n1` [Example 141, 9-Benzyl-2-butoxy-8-(5-fluoropyridin-3-yl)-6-methyl-9H-purine]: 3300 nM. Still for that read-out and setting: next, `CCCCOc1nc(C)c2nc(-c3cncc(OC)c3)n(Cc3ccccc3)c2n1` [Example 142]: 6600 nM; `CCOc1nc(N)c2nc(-c3cncc(F)c3)n(Cc3ccc(C(=O)N4CCN(C)CC4)cc3)c2n1` [Example 143, (4-{[6-Amino-2-ethoxy-8-(5-fluoropyridin-3-yl)-9H-purin-9-yl]methyl}phenyl) (4-methylpiperazin-1-yl)methanone]: 1570 nM. The same measure, in the same setting: next, `CCOc1nc(N)c2nc(-c3cncc(F)c3)n(Cc3ccc(C(=O)N4CCC(C)CC4)cc3)c2n1` [Example 144]: 2600 nM; `CCOc1nc(N)c2nc(-c3cncc(F)c3)n(Cc3ccc(C(=O)NCCN(C)C)cc3)c2n1` [Example 145]: 2100 nM. In turn, `CCOc1nc(N)c2nc(-c3cncc(F)c3)n(Cc3ccc(C(=O)NCCN4CCCC4)cc3)c2n1` [Example 146] showed an IC50 of 1700 nM. With `CCCCOc1nc(N)c2nc(-c3cncc(F)c3)n(Cc3cccc(C(=O)N4CCN(C)CC4)c3)c2n1` [Example 147], half-maximal inhibition (IC50) required 3500 nM. In the case of `CCOc1nc(N)c2nc(-c3cncc(F)c3)n(Cc3ccc(C4CCN(C(=O)CN(C)C)CC4)cc3)c2n1` [Example 148, 1-[4-(4-{[6-Amino-2-ethoxy-8-(5-fluoropyridin-3-yl)-9H-purin-9-yl]methyl}phenyl)piperidin-1-yl]-2-(dimethylamino)ethanone], the “inhibitory effect against TLR7” value was “potent inhibitory effect against TLR7” and the IC50 came to 16 nM.

For `COc1nc(N)c2nc(-c3cncc(F)c3)n(Cc3ccc(CN(C)C)cc3)c2n1` [Example 150], the midpoint of inhibition, the IC50, lay at 500 nM. In other words, the sub-micromolar range. Same read-out and setting: the figure for `CN(C)Cc1ccc(Cn2c(-c3cncc(F)c3)nc3c(N)nc(OC4CCOCC4)nc32)cc1` [Example 151] is 16600 nM; for `CN(C)Cc1ccc(Cn2c(-c3cncc(F)c3)nc3c(N)nc(OCC4CCOCC4)nc32)cc1` [Example 152] it is 2900 nM; for `CN(C)Cc1ccc(Cn2c(-c3cncc(F)c3)nc3c(N)nc(N4CCC4)nc32)cc1` [Example 153] it is 5800 nM. On to `CCCCNc1nc(N)c2nc(-c3cncc(F)c3)n(Cc3ccc(CN(C)C)cc3)c2n1` [Example 154], for which the IC50 was found to be 13600 nM.

A word on the IC50: it is the concentration that inhibits the measured activity by half. A higher IC50 goes with weaker potency.
